Results reported in patent US20180305408A1, “COMPOUNDS FOR INDUCING TISSUE FORMATION AND USES THEREOF” (HISTIDE AG, priority 2015, published 2018).
No end group written: not given here.

Columns and labels:
[1] = Stability of non-covalent coating of fluorescent peptides on apatite ceramics or type-I collagen sponge; assay type: physicochemical; details: FITC-bound peptide on apatite ceramics or type-I collagen sponge; after 3, 7 or 10 days
Procedure: Non-covalent modifications of the materials were performed in Air Atmosphere at room temperature. The non-covalent coating strategy consisted in using a mixture of compound of the invention (SEQ ID NO: 9; concentration of 1×10^−3M) with an apatite ceramics implant or a mixture of compound of the invention (SEQ ID NO: 10; concentration of 1×10^−3M) with a type-I collagen sponge. The non-covalently coated conventional materials were characterized by using fluorescent peptides (Here SEQ ID NO: 9 and 10 covalently bound to fluorescein isothiocyanate (FITC), FIG. 3). The results shown here in FIG. 3 were obtained from experiments performed with apatite ceramics and a type-I collagen sponge. […] Indeed, after 3, 7 or 10 days, the osteogenic peptides were still coupled to the ceramics or the type-I collagen (FIG. 4). The biomaterial surface was characterized by X-ray photoelectron spectroscopy (Table 1). The X-ray photoelectron spectroscopy was performed as described in the Methods section.

[2] = test system: Neurons; assay: Neuron growth (dendrite growth, GAP43 Q-PCR); assay type: cell-based
Text: […]

[3] = test system: Human umbilical-vein endothelial cells; assay: Angiogenesis: tube-like structure formation by HUVECs; assay type: cell-based; details: after 18 hours of culture
Procedure: Human umbilical-vein endothelial cells were cultured with and without vascular peptides (SEQ ID NO: 27).

[4] = test system: Human umbilical-vein endothelial cells; assay: Endothelialization: area of adherent junctions (CD31) in HUVECs; assay type: cell-based; details: after 36 hours of culture
Procedure: Human umbilical-vein endothelial cells were cultured with and without endothelialization GFR-binding compounds as defined herein (SEQ ID NO: 26). An increase in the area of the adherent junctions (CD31) was observed after 36 hours of culture with GFR-binding compounds as defined herein (FIG. 10).

[5] = test system: hMSCs; assay: Cartilage regeneration: chondrocyte differentiation of hMSCs (Sox9, Aggrecan); assay type: cell-based, Human; details: after 96 hours of culture
Procedure: (§1) Total RNA was extracted by using the RNeasy total RNA kit (Qiagen®) according to the manufacturer's instructions. Purified total RNA was used as a template in order to make cDNA by a reverse transcription reaction (Gibco Brl®) with random primers (Invitrogen®). The cDNA was then used as a template for a real-time PCR amplification in the presence of SYBR green reagents (Bio-Rad®) by using a thermocycler (iCycler, Biorad®). Data were analyzed with the iCycler IQ™® software and compared by the ΔΔCt method. […]
Total RNA was extracted by using the RNeasy Mini Kit (Qiagen) and […] RNA was used for cDNA synthesis with AMV kit (Invitrogen®) according to the manufacturer′ instructions. Semi-quantitative reverse transcriptase-polymerase chain reaction (RT-PCR) was performed with Taq DNA Polymerase (Invitrogen®) in a thermocycler (Bio-Rad®). […] The PCR products were analyzed on 2% agarose gels. For the Aggrecan gene, the PCR bands were densitometrically quantified by using the BioCapt software (Vilber). […]
It was then verified that these hMSCs cultured with and without GFR-binding compounds as defined herein were differentiated into chondrocyte cells by analyzing the expression of the chondrocyte gene biomarker: Aggrecan. […] For that a semi-quantitative RT-PCR was performed as described in the Methods section for the Aggrecan gene and a Quantitative Real Time PCR for Sox9.

[6] = test system: Hair Follicle Stem Cells; assay: Activation of hair follicle stem cells (Sox2 expression, BMP-6 release); assay type: cell-based, Mouse
Text: The following starting materials and reagents were used: • Apatite ceramics (also called apatite or ceramic in the present invention) were synthetized as described in Mater Res. 2004; 7(4): 625-630. • Titanium was obtained from Goodfellow®. • Hydrogel (poly(acrylamide-co-acrylic acid) gel) was synthetized as described in Langmuir 2011; 27(22):13635-42. • PEEK was obtained from Goodfellow®. • PET (Poly(ethylene terephthtalate) was obtained from Goodfellow@. • Type-I collagen sponge was obtained from Sigma®. • Hexane was obtained from Sigma®. • 3-succinimidyl-3-maleimidopropionate (SMP) was obtained from Sigma®. • DMF was obtained from Sigma®. • PBS 1× was obtained from Gibco®. • 3-(ethoxydimethylsilyl)propylamine was obtained from Sigma®. • Ammonium persulfate was obtained from Biorad®. • N,N,N′,N′-tetramethylethylenediamine was obtained from Aldrich®. • Acrylamid was obtained from Merck®. • Acrylic acid was obtained from Merck®. • N,N-methylene-bis-acrylamide was obtained from Merck®. • NaOH was obtained from Aldrich®. • N,N,N′,N′-tetramethylethylenediamine was obtained from Aldrich®. • Dimethylaminopropyl-3-ethylcarbodiimide hydrochloride was obtained from Aldrich®. • N-hydroxysuccinimide was obtained from Aldrich®. • 2-(N-morpholino)-ethane sulfonic acid was obtained from Aldrich®. • MilliQ water: is water characterised in terms of resistivity (typically 18.2 MΩ·cm at 25° C.). • Low glucose Dulbecco's Modified Eagle Medium (DMEM) was obtained from Invitrogen® • Minimum Essential Medium Eagle without ascorbic acid (αMEM) was obtained from Invitrogen®. • All of the cell culture experiments were carried out without any serum in the medium for the first 8 hours of culture. • Osteoblast progenitors or precursor osteoblasts: MC3T3-E1 cells were obtained from ATCC®. These cells were cultured in Alpha-MEM medium supplemented with 10% fetal calf serum (FCS) and 1% penicillin/streptomycin. All cells were used at a low passage number (passage 7), were subconfluently cultured and were seeded at 10^4 cells/cm^2 for the purpose of the experiments. • Human bone marrow Mesenchymal Stem Cells (hMSCs) were obtained from Lonza®. These cells were cultured in Alpha-MEM supplemented with 10% (v/v) FBS and 1% penicillin/streptomycin and incubated in a humidified atmosphere containing 5% (v/v) CO2 at 37° C. All cells were used at a low passage number (passage 2 to 4), were subconfluently cultured and were seeded at 10^4 cells/cm^2 for the purpose of the experiments. • Human adipose Mesenchymal Stem Cells (haMSCs) were obtained from Lonza®. These cells were cultured in Alpha-MEM supplemented with 10% (v/v) FBS and 1% penicillin/streptomycin and incubated in a humidified atmosphere containing 5% (v/v) CO2 at 37° C. […]

[7] = test system: osteoblast progenitors; assay: Osteogenic differentiation of osteoblast progenitors on coated materials (Osteopontin staining, Runx2 Q-PCR); assay type: cell-based; details: 48 hours on coated apatite ceramics or type-I collagen sponge vs native materials
Procedure: The cells were first fixed for 20 min with 4% paraformaldehyde/PBS at 4° C. After fixation, the cells were permeabilized in PBS containing 1% Triton X-100 for 15 min. Runx2, Osterix, Stro-1, Vinculin, Phalloidin, Osteopontin, Sox2, Sox9 antibodies were visualized by treating the cells with 1% (v/v) specific monoclonal antibodies for 1 hour at 37° C. Then the samples were incubated with Alexa Fluor® 568 or 647 (F(ab′)2 fragment of IgG(H+L)) during 30 min at room temperature. The cell nuclei were counterstained in 20 ng/mL DAPI for 10 min at room temperature.
as §1, with “The cDNA was then used as a template for a real-time PCR amplification in the presence of SYBR green reagents (Bio-Rad®) by using a thermocycler (iCycler, Biorad®).” left out
The effect of the GFR-binding compounds as defined herein (SEQ ID NO: 19 and 20) on the differentiation of osteoblast progenitors was evaluated. […]
Finally, it was verified that the osteoblast progenitors were differentiated into mature osteoblasts by analyzing the expression of the osteogenic biomarker Runx2. An increase in the Runx2 gene expression after 24 hours of culture (FIG. 8a) was observed by using Quantitative Real Time Polymerase Chain Reaction as described in the Methods section.

[8] = test system: hMSCs; assay: ALP activity of hMSCs on type-I collagen sponge coupled with compound; assay type: cell-based, Human; details: after 1 week of culture on type-I collagen sponge
Text: Finally, it was verified that the hMSCs were differentiated into mature osteoblasts by analyzing the activity of the osteogenic biomarker ALP (Alkaline Phosphatase Activity). We observed an increase in the ALP activity after 1 week of culture on type-I collagen sponge coupled with GFR-binding compounds as defined herein (SEQ ID NO: 19) (FIG. 8b).

SEQ ID NO: 9: compound of the invention non-covalently coated on apatite ceramics; tested bound to FITC; sequence not in this part (WWFWGSAISTLYLIGKTPKILKNYQ; also: FITC label, site not given here, cyclic, ring not given here)
release of peptides from the coated material over time [1]: no significant release

SEQ ID NO: 38: neurogenic peptide; sequence not in this part (SPISILYIDAANNVVYKQYEDAAN; also: cyclic, ring type not given here)
establishment of cell-cell contacts via dendrite growth ([2]; after 6 hours of culture): rapid establishment of cell-cell contacts
GAP43 gene expression ([2]; after 48 hours of culture, Q-PCR): high level of expression

SEQ ID NO: 27: vascular peptide; sequence not in this part (SNITMQIMRIKPHQGQHIGEMSGG; also: cyclic, ring type not given here)
formation of tube-like structures [3]: formation of tube-like structures was observed

SEQ ID NO: 26: endothelialization GFR-binding compound; sequence not in this part (RSVKVAKVRIKPHQGQHKEVQVGG; also: cyclic, ring type not given here)
area of the adherent junctions (CD31) [4]: increase

SEQ ID NO: 23: GFR-binding compound inducing cartilage regeneration; sequence not in this part (ELEPLPIVYYVGRKPKVEQLSNGG; also: cyclic, ring type not given here)
expression of the Sox9 protein [5]: expression of the Sox9 protein was observed

SEQ ID NO: 10: compound of the invention non-covalently coated on type-I collagen sponge; tested bound to FITC; sequence not in this part (GTPGPSAISTLYLIGKTPKILKNYQ; also: cyclic, ring type not given here, bound to FITC, place not given here)
release of peptides from the coated material over time [1]: no significant release

SEQ ID NO: 29: GFR-binding compound tested on hair follicle stem cells; sequence not in this part (DENKNSSLSILFFDENKNVVLKVYP; also: cyclic, ring type not given here)
BMP-6 release in the cell culture medium [6]: decrease
Sox2 protein expression [6]: increase

SEQ ID NO: 24: GFR-binding compound inducing cartilage regeneration; sequence not in this part (EPLPIVYYVGRTPKVEQLSNGG; also: cyclic, ring type not given here)
expression of the Sox9 protein [5]: expression of the Sox9 protein was observed

SEQ ID NO: 19: GFR-binding compound, osteogenic, coated on apatite ceramics or collagen sponge; sequence not in this part (WWFWGSAISTLYLDEYDKVVLKNYQ; also: cyclic, ring type not given here)
production of extracellular matrix proteins such as Osteopontin (OPN) [7]: extensive amounts
ALP activity [8]: increase

SEQ ID NO: 20: GFR-binding compound, osteogenic, coated on apatite ceramics or collagen sponge; sequence not in this part (GTPGPSAISTLYLGGGGLKNYQ; also: cyclic, ring type not given here)
production of extracellular matrix proteins such as Osteopontin (OPN) [7]: extensive amounts

SEQ ID NO: 30: GFR-binding compound tested on hair follicle stem cells; sequence not in this part (DENEKSSLSILFFDENEKVVLKVYP; also: cyclic, ring type not given here)
BMP-6 release in the cell culture medium [6]: decrease
Sox2 protein expression [6]: increase
